Data from patent EP4678638A1, “NEW E3 UBIQUITIN LIGASE LIGAND, PROTEIN DEGRADATION AGENT AND USE THEREOF” (priority 2023, dated 2024).

Tested on: EGFR
Test: Western blot degradation of EGFR (H1975 Cell)
Type: cell-based, Human
Conditions: Table D2
Method: Conventional Western blot assay was performed to evaluate the effects of the compounds of the present disclosure on the expression of target proteins in cells.
(1) Cell Seeding and Protein Harvesting: The selected cells were processed according to the cell seeding procedure and protein harvesting procedure in Table III-2. Table III-2 Cell Seeding and Protein Harvesting Procedures
(2) To the collected supernatant, 5X SDS sample loading buffer was added, followed by denaturation at 95°C for 5 minutes. The denatured samples were then separated by SDS-PAGE electrophoresis on a polyacrylamide gel. Proteins were transferred to a nitrocellulose membrane (0.45 µm NC membrane), blocked with blocking buffer at room temperature for 1 hour, and subjected to antibody incubation and development procedures according to the antibody manufacturer's instructions (Cell Signaling Technology).
Half-Maximal Degradation Concentration value (the drug concentration required for degrading proteins by 50%, abbreviated as DC50) reads method: comparing the grayscale values of Western blot bands from drug-treated samples with those from blank DMSO-treated controls, and identifying the drug concentration range at which the grayscale value is half that of the DMSO-treated control bands.
DC50 values can be calculated using ImageJ software to measure grayscale values of Western blot bands from drug-treated samples. The concentration-response curve is fitted to estimate the drug concentration corresponding to half the grayscale value.
Target protein remaining (%) refers to the percentage of target protein remaining in hPBMC cells after treatment with protein degrader compounds.
Calculation method for target protein remaining (%): Use ImageJ software to measure grayscale values of Western blot bands from drug (protein degrader)-treated samples. The grayscale value of drug-treated bands is divided by that of internal control protein bands, and the resulting quotient is normalized to obtain the relative percentage of remaining target protein after protein degrader treatment.
Target protein degradation rate (%) = 100% - target protein remaining (%).

Structure (SMILES)	Degradation of substrate protein EGFR (substrate protein remaining %)
COc1cc(N2CCN(Cc3ccc(C4CCC(=O)NC4=O)cc3)CC2)c(C)cc1Nc1ncc(Br)c(Nc2ccc3nccnc3c2P(C)(C)=O)n1 (centres unmarked) [GT-03913, 3-(4-((4-(4-((5-bromo-4-((5-(dimethylphosphoryl)quinoxalin-6-yl)amino)pyrimidin-2-yl)amino)-5-methoxy-2-methylphenyl)piperazin-1-yl)methyl)phenyl)piperidine-2,6-dione]	A (A is defined as 0% ≤ substrate protein remaining % ≤ 80%)
COC1CCN(c2nccc(Nc3cc4c(cn3)c(N3CCC(N(C)Cc5ccc(N6CCC(=O)NC6=O)cc5)CC3)nn4C(C)C)n2)CC1 [GT-06121, 1-(4-(((1-(1-isopropyl-6-((2-(4-methoxypiperidin-1-yl)pyrimidin-4-yl)amino)-1H-pyrazolo[4,3-c]pyridin-3-yl)piperidin-4-yl)(methyl)amino)methyl)phenyl)dihydropyrimidine-2,4(1H,3H)-dione]	A (A is defined as 0% ≤ substrate protein remaining % ≤ 80%)
COC1CCN(c2nccc(Nc3cc4c(cn3)c(N3CCN(Cc5ccc(N6CCC(=O)NC6=O)cn5)CC3)nn4C(C)C)n2)CC1 [GT-06039, 1-(6-((4-(1-isopropyl-6-((2-(4-methoxypiperidin-1-yl)pyrimidin-4-yl)amino)-1H-pyrazolo[4,3-c]pyridin-3-yl)piperazin-1-yl)methyl)pyridin-3-yl)dihydropyrimidine-2,4(1H,3H)-dione]	A (A is defined as 0% ≤ substrate protein remaining % ≤ 80%)
O=C1CCN(c2ccc(CN3C4CCC3CN(c3ccc(-c5cc(F)c6c(c5)C(=O)N(C(C(=O)Nc5nccs5)c5ncn7c5CCC7)C6)cc3)C4)cn2)C(=O)N1 (centres unmarked) [GT-06256, 2-(6,7-dihydro-5H-pyrrolo[1,2-c]imidazol-1-yl)-2-(6-(4-(8-((6-(2,4-dioxotetrahydropyrimidin-1(2H)-yl)pyridin-3-yl)methyl)-3,8-diazabicyclo[3.2.1]octan-3-yl)phenyl)-4-fluoro-1-oxoisoindolin-2-yl)-N-(thiazol-2-yl)acetamide]	A (A is defined as 0% ≤ substrate protein remaining % ≤ 80%)
COc1cc(N2CCC(N(C)Cc3ccc(C4CCC(=O)NC4=O)c(F)c3)CC2)c(C)cc1Nc1ncc(Br)c(Nc2ccc3nccnc3c2P(C)(C)=O)n1 (centres unmarked) [GT-03931, 3-(4-(((1-(4-((5-bromo-4-((5-(dimethylphosphoryl)quinoxalin-6-yl)amino)pyrimidin-2-yl)amino)-5-methoxy-2-methylphenyl)piperidin-4-yl)(methyl)amino)methyl)-2-fluorophenyl)piperidine-2,6-dione]	A (A is defined as 0% ≤ substrate protein remaining % ≤ 80%)
CC(C)n1nc(N2CCC(N3CCN(Cc4ccc(N5CCC(=O)NC5=O)cc4)CC3)CC2)c2cnc(Nc3ccnc(-c4cnn(S(=O)(=O)C5CC5)c4)n3)cc21 [GT-06079, 1-(4-((4-(1-(6-((2-(1-(cyclopropylsulfonyl)-1H-pyrazol-4-yl)pyrimidin-4-yl)amino)-1-isopropyl-1H-pyrazolo[4,3-c]pyridin-3-yl)piperidin-4-yl)piperazin-1-yl)methyl)phenyl)dihydropyr imidine-2,4(1H,3H)-dione]	A (A is defined as 0% ≤ substrate protein remaining % ≤ 80%)
CN(Cc1ccc(N2CCC(=O)NC2=O)cc1)C1CCN(c2ccc(Nc3ncc4nc(Nc5ccccc5)n(C5CCCC5)c4n3)cc2)CC1 [GT-07092, 1-(4-(((1-(4-((9-cyclopentyl-8-(phenylamino)-9H-purin-2-yl)amino)phenyl)piperidin-4-yl)(methyl)amino)methyl)phenyl)dihydropyrimidine-2,4(1H,3H)-dione]	A (A is defined as 0% ≤ substrate protein remaining % ≤ 80%)
COC1CCN(c2nccc(Nc3cc4c(cn3)c(N3CCC(N(C)Cc5cccc(NC6CCC(=O)NC6=O)c5)CC3)nn4C(C)C)n2)CC1 (centres unmarked) [GT-06123, 3-((3-(((1-(1-isopropyl-6-((2-(4-methoxypiperidin-1-yl)pyrimidin-4-yl)amino)-1H-pyrazolo[4,3-c]pyridin-3-yl)piperidin-4-yl)(methyl)amino)methyl)phenyl)amino)piperidine-2,6-dione]	A (A is defined as 0% ≤ substrate protein remaining % ≤ 80%)
CC(C)n1nc(N2CCC(N3CCN(Cc4cccc(NC5CCC(=O)NC5=O)c4)CC3)CC2)c2cnc(Nc3ccnc(-c4cnn(S(=O)(=O)C5CC5)c4)n3)cc21 (centres unmarked) [GT-06083, 3-((3-((4-(1-(6-((2-(1-(cyclopropylsulfonyl)-1H-pyrazol-4-yl)pyrimidin-4-yl)amino)-1-isopropyl-1H-pyrazolo[4,3-c]pyridin-3-yl)piperidin-4-yl)piperazin-1-yl)methyl)phenyl)amino)pip eridine-2,6-dione]	A (A is defined as 0% ≤ substrate protein remaining % ≤ 80%)
COc1cc(N2CCN(Cc3ccc(C4CCC(=O)NC4=O)c(F)c3)CC2)c(C)cc1Nc1ncc(Br)c(Nc2ccc3nccnc3c2P(C)(C)=O)n1 (centres unmarked) [GT-03914, 3-(4-((4-(4-((5-bromo-4-((5-(dimethylphosphoryl)quinoxalin-6-yl)amino)pyrimidin-2-yl)amino)-5-methoxy-2-methylphenyl)piperazin-1-yl)methyl)-2-fluorophenyl)piperidine-2,6-dione]	A (A is defined as 0% ≤ substrate protein remaining % ≤ 80%)
CC(C)n1nc(N2CCN(Cc3ccc(N4CCC(=O)NC4=O)nc3)CC2)c2cnc(Nc3ccnc(-c4cnn(S(=O)(=O)C5CC5)c4)n3)cc21 [GT-06015, 1-(5-((4-(6-((2-(1-(cyclopropylsulfonyl)-1H-pyrazol-4-yl)pyrimidin-4-yl)amino)-1-isopropyl-1H-pyrazolo[4,3-c]pyridin-3-yl)piperazin-1-yl)methyl)pyridin-2-yl)dihydropyrimidine-2,4(1H,3H)-dione]	A (A is defined as 0% ≤ substrate protein remaining % ≤ 80%)
O=C1CCN(c2ccc(CN3C[C@@H]4C[C@H]3CN4c3ccc(-c4cc(F)c5c(c4)C(=O)N(C(C(=O)Nc4nccs4)c4ncn6c4CCC6)C5)cc3)cn2)C(=O)N1 (stereo partly drawn) [GT-05120, 2-(6,7-dihydro-5H-pyrrolo[1,2-c]imidazol-1-yl)-2-(6-(4-((1S,4S)-5-((6-(2,4-dioxotetrahydropyrimidin-1(2H)-yl)pyridin-3-yl)methyl)-2,5-diazabicyclo[2.2.1]heptan-2-yl)phenyl)-4-fluoro-1-oxoisoindolin-2-yl)-N-(thiazol-2-yl)acetamide]	A (A is defined as 0% ≤ substrate protein remaining % ≤ 80%)
CN(Cc1cccc(NC2CCC(=O)NC2=O)c1)C1CCN(c2ccc(Nc3ncc4nc(Nc5ccccc5)n(C5CCCC5)c4n3)cc2)CC1 (centres unmarked) [GT-07094, 3-((3-(((1-(4-((9-cyclopentyl-8-(phenylamino)-9H-purin-2-yl)amino)phenyl)piperidin-4-yl)(methyl)amino)methyl)phenyl)amino)piperidine-2,6-dione]	A (A is defined as 0% ≤ substrate protein remaining % ≤ 80%)
COC1CCN(c2nccc(Nc3cc4c(cn3)c(N3CCC(N(C)Cc5cccc(N6CCC(=O)NC6=O)c5)CC3)nn4C(C)C)n2)CC1 [GT-06122, 1-(3-(((1-(1-isopropyl-6-((2-(4-methoxypiperidin-1-yl)pyrimidin-4-yl)amino)-1H-pyrazolo[4,3-c]pyridin-3-yl)piperidin-4-yl)(methyl)amino)methyl)phenyl)dihydropyrimidine-2,4(1H,3H)-dione]	A (A is defined as 0% ≤ substrate protein remaining % ≤ 80%)
CC(C)n1nc(N2CCN(Cc3cccc(NC4CCC(=O)NC4=O)c3)CC2)c2cnc(Nc3ccnc(-c4cnn(S(=O)(=O)C5CC5)c4)n3)cc21 (centres unmarked) [GT-06016, 3-((3-((4-(6-((2-(1-(cyclopropylsulfonyl)-1H-pyrazol-4-yl)pyrimidin-4-yl)amino)-1-isopropyl-1H-pyrazolo[4,3-c]pyridin-3-yl)piperazin-1-yl)methyl)phenyl)amino)pip eridine-2,6-dione]	A (A is defined as 0% ≤ substrate protein remaining % ≤ 80%)
CC(C)n1nc(N2CCN(Cc3ccc(N4CCC(=O)NC4=O)cn3)CC2)c2cnc(Nc3ccnc(-c4cnn(S(=O)(=O)C5CC5)c4)n3)cc21 [GT-06014, 1-(6-((4-(6-((2-(1-(cyclopropylsulfonyl)-1H-pyrazol-4-yl)pyrimidin-4-yl)amino)-1-isopropyl-1H-pyrazolo[4,3-c]pyridin-3-yl)piperazin-1-yl)methyl)pyridin-3-yl)dihydropyrimidine-2,4(1H,3H)-dione]	A (A is defined as 0% ≤ substrate protein remaining % ≤ 80%)
COC1CCN(c2nccc(Nc3cc4c(cn3)c(N3CCC(N(C)Cc5ccc(C6CCC(=O)NC6=O)cc5)CC3)nn4C(C)C)n2)CC1 (centres unmarked) [GT-06120, 3-(4-(((1-(1-isopropyl-6-((2-(4-methoxypiperidin-1-yl)pyrimidin-4-yl)amino)-1H-pyrazolo[4,3-c]pyridin-3-yl)piperidin-4-yl)(methyl)amino)methyl)phenyl)piperidine-2,6-dione]	A (A is defined as 0% ≤ substrate protein remaining % ≤ 80%)
